From patent US11028079B2 (ConverGene LLC, priority 2015, dated 2021) come the findings set out here.

The target in the assay is T1, BRD4 bromodomains (Homo sapiens, UniProt O60885).
T1 construct: fused on or other part: T7 phage capsid protein (phage-display fusion; the phage DNA is read out by qPCR)
In words: BROMOscan bromodomain competition binding assay (DiscoveRx). To be noted: Kd from 11 compound concentrations ranging from 0 to 10 μM, read-out: BROMOscan Relative Activity. As to the method: Bromodomain assays were conducted to measure interactions between certain compounds and bromodomains.
The assays were conducted according to BROMOscan protocol from Discover Rx. Briefly, BRD4 bromodomains expressed as a fusion capsid protein of T7 phage were bound to acetylated peptide ligand on a solid phase and competition bindings were performed. T7 phage strains displaying bromodomains were grown in parallel in 24-well blocks in an E. coli host derived from the BL21 strain. E. coli were grown to log-phase and infected with T7 phage from a frozen stock (multiplicity of infection=0.4) and incubated with shaking at 32° C. until lysis (90-150 minutes). The lysates were centrifuged (5,000×g) and filtered (0.2 μm) to remove cell debris. […] The liganded beads were blocked with excess biotin and washed with blocking buffer (SeaBlock (Pierce), 1% BSA, 0.05% Tween 20, 1 mM DTT) to remove unbound ligand and to reduce non-specific phage binding. […] Test compounds were prepared as 1000× stocks in 100% DMSO and subsequently diluted 1:10 in monoethylene glycol (MEG) to create stocks at 100× the screening concentration (resulting stock solution is 10% DMSO/90% MEG). The compounds were then diluted directly into the assays such that the final concentration of DMSO and MEG were 0.1% and 0.9%, respectively. All reactions were performed in polystyrene 96-well plates in a final volume of 0.135 ml. […] The bromodomain concentration in the eluates was measured by qPCR. Data was collected at 11 compound concentrations ranging from 0 to 10 μM. Kd values were then derived from a standard dose-response curve generated with Hill equation (Hill Slope was set to ˜1) and a non-linear least square fit with the Levenberg-Marquardt algorithm. Response=Background+Signal−Background/1+(Kd Hill Slope/Dose Hill Slope)

`Cc1noc(C)c1-c1ccc2nc(-c3ccc(CO)nc3)nc(N3CCOC[C@@H]3c3ccccc3)c2c1` [Example 321, (S)-(5-(6-(3,5-dimethylisoxazol-4-yl)-4-(3-phenylmorpholino)quinazolin-2-yl)pyridin-2-yl)methanol]: the Kd was less than 500 nM.

Regarding `Cc1nn(C)c(C)c1CNC(=O)c1nc(NCc2cccc(Cl)c2)c2cc(-c3c(C)noc3C)ccc2n1` [Example 194, 4-((3-chlorobenzyl)amino)-6-(3,5-dimethylisoxazol-4-yl)-N-((1,3,5-trimethyl-1H-pyrazol-4-yl)methyl)quinazoline-2-carboxamide], the Kd was less than 500 nM. Consider `Cc1noc(C)c1-c1ccc2nc(N3CCN(S(C)(=O)=O)CC3)nc(NC3(c4cccc(Cl)c4)CC3)c2c1` [Example 180, N-(1-(3-chlorophenyl)cyclopropyl)-6-(3,5-dimethylisoxazol-4-yl)-2-(4-(methylsulfonyl)piperazin-1-yl)quinazolin-4-amine], for which the Kd was less than 500 nM. In the case of `Cc1noc(C)c1-c1ccc2nc(C(=O)O)nc(NCc3cccc(Cl)c3)c2c1` [Example 163, 4-((3-chlorobenzyl)amino)-6-(3,5-dimethylisoxazol-4-yl)quinazoline-2-carboxylic acid] it was less than 500 nM; in that of `Cc1noc(C)c1-c1ccc2nc(C(=O)N[C@H]3CC[C@H](O)CC3)nc(NCc3cccc(Cl)c3)c2c1` [Example 250, 4-((3-chlorobenzyl)amino)-6-(3,5-dimethylisoxazol-4-yl)-N-((trans)-4-hydroxycyclohexyl)quinazoline-2-carboxamide], less than 500 nM. Regarding `CNc1nc(NCc2cccc(Cl)c2)c2cc(-c3c(C)noc3C)ccc2n1` [Example 5, N4-(3-chlorobenzyl)-6-(3,5-dimethylisoxazol-4-yl)-N2-methylquinazoline-2,4-diamine], the Kd was in the range of 500 to 5000 nM.

With `Cc1noc(C)c1-c1ccc2nc(NCc3cccc(Cl)c3)cc(N3CCN(CCN(C)C)CC3)c2c1` [Example 27, N-(3-chlorobenzyl)-4-(4-(2-(dimethylamino)ethyl)piperazin-1-yl)-6-(3,5-dimethylisoxazol-4-yl)quinolin-2-amine], the Kd lay in the range of 500 to 5000 nM. In the case of `Cc1noc(C)c1-c1ccc2nc(C(=O)NC3CCOCC3)nc(NCc3cncc(Cl)c3)c2c1` [Example 229, 4-(((5-chloropyridin-3-yl)methyl)amino)-6-(3,5-dimethylisoxazol-4-yl)-N-(tetrahydro-2H-pyran-4-yl)quinazoline-2-carboxamide] it was less than 500 nM. In the case of `COc1cccc(CNc2nc(N3CCN(CCN(C)C)CC3)nc3ccc(-c4c(C)noc4C)cc23)c1` [Example 73, 2-(4-(2-(dimethylamino)ethyl)piperazin-1-yl)-6-(3,5-dimethylisoxazol-4-yl)-N-(3-methoxybenzyl)quinazolin-4-amine] it was less than 500 nM; in that of `Cc1noc(C)c1-c1ccc2c(NCc3cccc(Cl)c3)nc(Cl)nc2c1` [Example 38, 2-chloro-N-(3-chlorobenzyl)-7-(3,5-dimethylisoxazol-4-yl)quinazolin-4-amine], 500 to 5000 nM. In the case of `Cn1cc(-c2ccc3nc(-c4cnn(C(C)(C)CO)c4)nc(NCc4cncc(Cl)c4)c3c2)ccc1=O` [Example 149, 5-(4-(((5-chloropyridin-3-yl)methyl)amino)-2-(1-(1-hydroxy-2-methylpropan-2-yl)-1H-pyrazol-4-yl)quinazolin-6-yl)-1-methylpyridin-2(1H)-one] it was less than 500 nM; in that of `Cc1noc(C)c1-c1ccc2nc(-c3cnn(C4COC4)c3)nc(NCc3cccc(Cl)c3)c2c1` [Example 61, N-(3-chlorobenzyl)-6-(3,5-dimethylisoxazol-4-yl)-2-(1-(oxetan-3-yl)-1H-pyrazol-4-yl)quinazolin-4-amine], less than 500 nM.

Regarding `Cc1noc(C)c1-c1ccc2nc(N3CCN(C(=O)CO)CC3)nc(N3CCOC[C@@H]3c3ccccc3)c2c1` [Example 305, (S)-1-(4-(6-(3,5-dimethylisoxazol-4-yl)-4-(3-phenylmorpholino)quinazolin-2-yl)piperazin-1-yl)-2-hydroxyethan-1-one], the Kd is less than 500 nM.

As for `Cc1noc(C)c1-c1ccc2nc(C(=O)NCC3CN(C)C3)cc(NCc3cccc(Cl)c3)c2c1` [Example 231, 4-((3-chlorobenzyl)amino)-6-(3,5-dimethylisoxazol-4-yl)-N-((1-methylazetidin-3-yl)methyl)quinoline-2-carboxamide], the Kd was less than 500 nM. Next, `Cc1noc(C)c1-c1ccc2nc(C(=O)NCC3CN(C)C3)nc(N3CCOC[C@@H]3c3ccccc3)c2c1` [Example 283, (S)-6-(3,5-dimethylisoxazol-4-yl)-N-((1-methylazetidin-3-yl)methyl)-4-(3-phenylmorpholino)quinazoline-2-carboxamide]: less than 500 nM; `Cc1noc(C)c1-c1ccc2nc(C(=O)Nc3cnn(C)c3)nc(NCc3cccc(Cl)c3)c2c1` [Example 225, 4-((3-chlorobenzyl)amino)-6-(3,5-dimethylisoxazol-4-yl)-N-(1-methyl-1H-pyrazol-4-yl)quinazoline-2-carboxamide]: less than 500 nM; `Cc1noc(C)c1-c1ccc2nc(N3CCN(CCO)CC3)nc(NCc3cncc(Cl)c3)c2c1` [Example 120, 2-(4-(4-(((5-chloropyridin-3-yl)methyl)amino)-6-(3,5-dimethylisoxazol-4-yl)quinazolin-2-yl)piperazin-1-yl)ethanol]: less than 500 nM.

Regarding `Cc1noc(C)c1-c1ccc2nc(N3CCN(CCN(C)C)CC3)nc(N3CCC(C(=O)O)CC3)c2c1` [Example 254, 1-(2-(4-(2-(dimethylamino)ethyl)piperazin-1-yl)-6-(3,5-dimethylisoxazol-4-yl)quinazolin-4-yl)piperidine-4-carboxylic acid], the Kd lay in the range of 500 to 5000 nM. In the case of `Cc1noc(C)c1-c1ccc2nc(C(=O)NC3CN(C)C3)nc(N3CCOC[C@@H]3c3ccccc3)c2c1` [Example 277, (S)-6-(3,5-dimethylisoxazol-4-yl)-N-(1-methylazetidin-3-yl)-4-(3-phenylmorpholino)quinazoline-2-carboxamide] it was less than 500 nM; in that of `Cc1noc(C)c1-c1ccc2nc(-c3cnn(CC(C)(C)O)c3)nc(N3CCOC[C@@H]3c3ccccc3)c2c1` [Example 262, (S)-1-(4-(6-(3,5-dimethylisoxazol-4-yl)-4-(3-phenylmorpholino)quinazolin-2-yl)-1H-pyrazol-1-yl)-2-methylpropan-2-ol], less than 500 nM; in that of `Cc1noc(C)c1-c1ccc2nc(-c3c(C)noc3C)cc(NCc3cccc(Cl)c3)c2c1` [Example 14, N-(3-chlorobenzyl)-2,6-bis(3,5-dimethylisoxazol-4-yl)quinolin-4-amine], 500 to 5000 nM. Next, `Cc1noc(C)c1-c1ccc2nc(NCCCO)nc(NCc3cccc(Cl)c3)c2c1` [Example 13, 3-((4-((3-chlorobenzyl)amino)-6-(3,5-dimethylisoxazol-4-yl)quinazolin-2-yl)amino)propan-1-ol]: less than 500 nM; `Cc1ccc(NC(=O)c2nc(NCc3cccc(Cl)c3)c3cc(-c4c(C)noc4C)ccc3n2)cn1` [Example 219, 4-((3-chlorobenzyl)amino)-6-(3,5-dimethylisoxazol-4-yl)-N-(6-methylpyridin-3-yl)quinazoline-2-carboxamide]: 500 to 5000 nM; `CNC(=O)C1CCN(c2nc(N3CCOC[C@@H]3c3ccccc3)c3cc(-c4c(C)noc4C)ccc3n2)CC1` [Example 296, (S)-1-(6-(3,5-dimethylisoxazol-4-yl)-4-(3-phenylmorpholino)quinazolin-2-yl)-N-methylpiperidine-4-carboxamide]: less than 500 nM. Next, `Cc1noc(C)c1-c1ccc2nc(N3CCC(CCN(C)C)CC3)nc(NCc3cccc(Cl)c3)c2c1` [Example 34, N-(3-chlorobenzyl)-2-(4-(2-(dimethylamino)ethyl)piperidin-1-yl)-6-(3,5-dimethylisoxazol-4-yl)quinazolin-4-amine]: less than 500 nM. Turning to `Cc1noc(C)c1-c1ccc2nc(-c3cnn(CC(N)=O)c3)nc(N3CCOC[C@@H]3c3ccccc3)c2c1` [Example 297, (S)-2-(4-(6-(3,5-dimethylisoxazol-4-yl)-4-(3-phenylmorpholino)quinazolin-2-yl)-1H-pyrazol-1-yl)acetamide], the Kd was less than 500 nM. In the case of `Cc1noc(C)c1-c1ccc2nc(C(=O)NCC3CN(C)C3)nc(NCc3cccc(Cl)c3)c2c1` [Example 200, 4-((3-chlorobenzyl)amino)-6-(3,5-dimethylisoxazol-4-yl)-N-((1-methylazetidin-3-yl)methyl)quinazoline-2-carboxamide] it was less than 500 nM; in that of `Cc1noc(C)c1-c1ccc2nc(C(=O)NC3CCOCC3)cc(NCc3cccc(Cl)c3)c2c1` [Example 236, 4-((3-chlorobenzyl)amino)-6-(3,5-dimethylisoxazol-4-yl)-N-(tetrahydro-2H-pyran-4-yl)quinoline-2-carboxamide], less than 500 nM.
